This note sets out measurements from US8017588B2, “Clarithromycin or salt thereof for use in the treatment or prevention of pulmonary disease induced by destruction of pulmonary alveoli” (Taisho Pharmaceutical Co., Ltd, priority 2005, dated 2011).

Series [1] is described as follows: Plasma AUC after single administration to mice. It counts as in vivo. Conditions: C57black/6, mouse, oral, 50 mg/kg singly administered, read-out: plasma AUC0-∞. The protocol: (§1) Administration of clarithromycin was carried out orally at the rate of 25, 50 or 100 […] twice daily (morning and evening) during the tobacco smoke exposure period. The plasma AUC0-∞ of clarithromycin obtained when 50 mg/kg was singly administered to the mice was 2.677 μg·hr/ml while the plasma AUC0-∞ of clarithromycin obtained when 200 mg of clarithromycin was singly administered to a normal human subject was 8.98 μg·hr/ml. The former concentration was substantially lower than the latter one and was an adequate concentration to be used clinically.

For series [2], the system named is model mice with tobacco smoke-induced pulmonary emphysema. The series can be described thus: Pulmonary compliance in model mice with tobacco smoke-induced pulmonary emphysema. Conditions: after six months' exposure; FIG. 2. It counts as in vivo, C57black/6 female mice. The protocol: (§2) The model mice with tobacco smoke-induced pulmonary emphysema mimicking human pulmonary emphysema were constructed according to the method as described in Hautamaki, R. D. et al., Science 1997, 277:2002-2004 or Shapiro, S. D. et al., Am. J. Pathol (2003) 163:2329-2335. Specifically, C57black/6 female mice of 12-weeks old were exposed to tobacco smoke at two cigarettes per day, 6 days per week for 6 months. Administration of clarithromycin was carried out orally at the rate of 25, 50 or 100 […] twice daily (morning and evening) during the tobacco smoke exposure period. The plasma AUC0-∞ of clarithromycin obtained when 50 mg/kg was singly administered to the mice was 2.677 μg·hr/ml while the plasma AUC0-∞ of clarithromycin obtained when 200 mg of clarithromycin was singly administered to a normal human subject was 8.98 μg·hr/ml. The former concentration was substantially lower than the latter one and was an adequate concentration to be used clinically. It has been reported that as pulmonary emphysema progresses, pulmonary functions deteriorate. It has also been known that the pulmonary compliance, which is an index of pulmonary functions, increases in model mice with tobacco smoke-induced pulmonary emphysema. Thus, the pulmonary compliance was measured in the model mice with tobacco smoke-induced pulmonary emphysema after six months' exposure.

Series [3] relates to macrophages and neutrophiles in bronchoalveolar lavage fluids. The series can be described thus: Cell counts of inflammatory cells in bronchoalveolar lavage fluids of model mice with tobacco smoke-induced pulmonary emphysema. It counts as in vivo, C57black/6 female mice. The note with it: after six months' exposure, 25, 50 or 100 mg/kg orally twice daily. As to the method: as §2, with “The cell counts of inflammatory cells (macrophages and neutrophiles) in” for “It has been reported that as pulmonary emphysema progresses, pulmonary functions deteriorate. It has also been known that”, “bronchoalveolar lavage fluids after six months' exposure were measured to provide” for “pulmonary compliance, which is”, “of” for “of pulmonary functions, increases in model mice with tobacco smoke-induced pulmonary emphysema. Thus,”, “inflammatory condition” for “pulmonary compliance was measured”, “emphysema. […]” for “emphysema after six months' exposure.”

Series [4] can be described thus: Plasma AUC after single administration to a normal human subject. It counts as in vivo. Conditions: 200 mg singly administered, read-out: plasma AUC0-∞. As to the method: as §1

As for `CC[C@H]1OC(=O)[C@H](C)[C@@H](O[C@H]2C[C@@](C)(OC)[C@@H](O)[C@H](C)O2)[C@H](C)[C@@H](O[C@@H]2O[C@H](C)C[C@H](N(C)C)[C@H]2O)[C@](C)(OC)C[C@@H](C)C(=O)[C@H](C)[C@@H](O)[C@]1(C)O` [clarithromycin], the AUC(0-inf) came to 2680 ng·h/mL in series [1] and 8980 ng·h/mL in series [4]. In addition, the pulmonary compliance entry in series [2] is “the pulmonary compliance recovered”. Further, the “cell count of macrophages in bronchoalveolar lavage fluid” value in series [3] (FIG. 1A) was “reduced the cell counts of macrophages and neutrophiles in a dose-dependant manner”. Further, the “cell count of neutrophiles in bronchoalveolar lavage fluid” value in series [3] (FIG. 1B) was “reduced the cell counts of macrophages and neutrophiles in a dose-dependant manner”.
